Measurements reported in patent US20120021077A1, “SYNERGISTIC HERBAL COMPOSITION FOR TREATMENT OF RHEUMATIC AND MUSCULO-SKELETAL DISORDERS (RMSDS)” (priority 2007, published 2012).
Where two headings read alike, the source gives them in different places.

Experiments:
mouse bone marrow = settings: test drugs 2000 mg/kg oral; cyclophosphamide 75 mg/kg i.p.
Procedure: Assessment of genotoxicity using mouse bone marrow micronucleus test and Salmonella reverse mutation test was carried out according to OECD guidelines No. 474 and 471 respectively.
Genotoxicity study was carried out using mammalian bone marrow micronucleus test with the limit test at a single dose level of 2000 mg/kg body weight. The test drug was suspended in 1% CMC (carboxy methyl cellulose) and administered orally to the experimental animals. Control animals received 1% CMC alone. […] Treatment was given for two consecutive days at 0 h and 24 h. […] All the mice were sacrificed at 6th hr. after the last treatment (30th hr. after first dose) and femur bones were excised and bone marrow contents were flushed with fetal calf serum. Bone marrow cells were centrifuged spread as a smear on glass slide and stained using Giemsa stain and May-Grunwald stain. […] Minimum 2000 PCEs were scored from each animal. All the slides were coded prior to scoring and decoded after completion of scoring.

[1] = system: Acetic acid induced writhing in mice; experiment: Acetic acid induced writhing (peripheral analgesic model); assay type: in vivo, albino mice
Procedure: (§1) Analgesic and anti-inflammatory activity studies for crude drug powders or extracts and formulations there off were carried out in known animal models. Central (formalin-induced model) and peripheral (acetic acid induced model) analgesic activities were studied in albino mice, while wistar rats were used for acute (carrageenan induced paw edema model) and sub-acute (turpentine oil-induced granuloma pouch model) anti-inflammatory activity. Suitable positive and negative controls were used for the studies. The data obtained is statistically significant (P value<0.05) and reproducible.
The total number of writhings following intra-peritoneal administration of 0.6% acetic acid, 10 ml/Kg body weight was recorded for 20 minutes, starting 10 minutes after injection. The animals were pre-treated with test samples (100, 200 and 400 mg/Kg p.o.) 30 minutes prior to above treatment, simultaneously using Aspirin (30 mg/kg p.o.) as a positive control.

[2] = system: Carrageenan induced rat paw edema; experiment: Carrageenan induced rat paw edema (acute anti-inflammatory); assay type: in vivo, wistar rats; settings: anti-inflammatory studies, model not specified
Procedure: as §1
Various doses of test sample (100, 200 and 400 mg/Kg p.o.) and standard Indomethacin (10 mg/kg p.o.) were administered to different groups of rats. Acute inflammation was induced half an hour after the above treatment by injection of 0.1 ml of freshly prepared 1% (in water) suspension of Carrageenan sodium in sub-planter region of rat right hind paw. Paw volume was measured by plethysmographic method initially and then at 1, 2, 3, 4, 24, 48 and 72 hrs after carrageenan injection.

[3] = system: human OA cartilage explants; experiment: Glycosaminoglycan (GAG) release from human OA cartilage explants; assay type: cell-based; settings: for Percent control GAG release: control = 100%
Procedure: Aqueous extracts of each capsule were freshly prepared as required. Contents of each capsule were solubilized in distilled water (10 mG/mL) by limited autoclaving. Each extract was filter sterilized prior to addition to cartilage explants at the required final concentration. This method of herbal extract preparation gave reproducible sterility and biological activity (Sumantran et al, 2007).
Patients (age 55-75 years) suffered from chronic osteoarthritis (OA) for 5-15 years prior to knee replacement surgery. Cartilage integrity was recorded by macroscopic and microscopic examination, using the Outerbridge scale. Only non-calcified, grade 1-2 articular cartilage from the lateral femoral condyles was used (Outerbridge 1961).
OA cartilage explants were cultured as described earlier (Sumantran et al, 2007). Briefly, explants were treated for 24 hours with/without sterile aqueous extracts of each capsule, and re-fed with growth media without herbal extract every two days for eight days. Conditioned media (CM) samples from each explant were collected prior to each re-feed. All CM samples per OA patient were thawed and assayed for GAG and NO levels simultaneously. Aggrecan assays were done after analysis of the GAG release data.
Total GAG levels in CM samples were measured by the dimethylmethylene blue assay using Chondroitin sulphate as a standard (Hoemann et al, 2002). NO levels in CM samples were estimated using the Griess reagent.
GAG content is expressed as microgram equivalents of Chondroitin sulphate. NO is expressed in micromoles/mG of explant/mL of CM. Units of Aggrecan are micrograms/mG of explant/mL of CM. Each marker is measured at each time point for each CM sample derived from each patient.
Levels of GAG, NO, or aggrecan levels in CM samples from explants at each time, point, per patient, treated with/without drug; were tested for statistical significance at the 95% confidence level using the Students 2 tailed t-test for paired samples. We calculated the effect of drug extracts in each CM sample, at each time point, per patient sample; using the ratio shown below:
Long-term versus Short-term activity: Long-term chondroprotective or anti-inflammatory activity is the ability of a drug to cause a statistically significant decrease in levels of GAG, aggrecan, or NO release by OA cartilage explants, relative to controls. This effect must be observed for at least 3 of the 4 time points during in vitro culture. Short-term activity is similar, but is detected at only 1 or 2 of the 4 time points tested.
In explant model of OA cartilage damage, GAG released by cartilage explants for 5 time points after a 24 hour drug treatment was measured. The effect on GAG release from cartilage explants of six OA patients treated with/without aqueous extracts of formulations C and C+G (100 microg/mLeach) was studied. […] Glucosamine and celecoxib each caused a statistically significant, 25% decrease in GAG release at time point 4, compared to controls.

symptomatic OA knees = experiment: Phase II 24-week comparator controlled trial of equivalence; assay type: in vivo, patients; design: W_DIFF, mean change between baseline and completion (Mean ± SD) / W_TOTAL, mean change between baseline and completion (Mean ± SD) / W_PAIN, mean change between baseline and completion (Mean ± SD) / W_STIFF, mean change between baseline and completion (Mean ± SD): scale not given here; settings: 24 weeks
Text: • Phase II, Randomized, double blind, comparator (Celecoxib & Glucosamine) controlled, multicentric trial of equivalence. • Study Duration-24 weeks • Sample size (statistically powered 80% with α<0.05)—440 patients with symptomatic OA knees • 4 arm-2 Ayurvedic Interventions (C, C+) Celecoxib & Glucosamine, parallel efficacy study • 110 patients in each arm • No rescue medication permitted

[4] = system: human OA cartilage explants; experiment: Aggrecan release from human OA cartilage explants; assay type: cell-based
Text: The kit uses a mixture of monoclonal antibodies to different epitopes of aggrecan, thereby ensuring sensitive and rapid estimation of aggrecan.

OA cartilage explants = experiment: Nitric oxide (NO) release by OA cartilage explants; assay type: cell-based, human
[5] = system: symptomatic knee osteoarthritis; experiment: 16-week randomized double blind placebo and comparator controlled trial (NMITLI OA stage I/2); assay type: in vivo, patients
Procedure: NMITLI OA stage I/2: The said formulation was evaluated in a randomized double blind placebo controlled, multicentric 16 week clinical trial in 245 patients with symptomatic knee osteoarthritis. This was This was a 7 arm exploratory study, aimed to evaluate the efficacy and safety of 5 multiplant formulations using Shunthi-Guduchi as a common platform formulation in all. Glucosamine was the positive comparator.
Glucosamine was the positive comparator in this study.
The clinical trials are conducted on the following basis: • Randomized, Double Blind, parallel efficacy, Placebo & Comparator controlled study • 245 patients in a 7 arm (5 ayurvedic arms coded as A-E, placebo-1, Glucosamine-1) study of 16 weeks duration. • 35 patients in each arm • Monitored pain rescue medication (oral paracetamol) permitted on SOS basis • Intent to treat analysis with last observation carried forward • All arms well-matched at baseline for demographics and efficacy.

[6] = system: active Rheumatoid arthritis (RA); experiment: NMITLI RA stage I/1, 24-week study; assay type: in vivo, patients; settings: week 24
Text: NMITLI RA STAGE I/1: A randomized double blind comparator controlled parallel efficacy multicentric 24-week study in patients with active Rheumatoid arthritis (RA). In this study, formulation B and a proprietary ayurvedic formulation were compared to Hydroxychloroquine (HCQS), which is a popular DMARD (Disease Modifying Anti Rheumatoid Drug) in modern medicine rheumatology. As a complex painful inflammatory polyarticular disease, several efficacy variables, both clinical and laboratory were used to evaluate efficacy—Joint Counts for pain/tenderness and swelling, pain VAS, Patients Global assessments by the patient and physician, Health Assessment Questionnaire (a validated instrument for functional ability for Indian use), ESR, CRP and cytokines markers.
At baseline, all the groups were matched well in several demographic and efficacy measures. […] The overall safety of Ayurvedic formulations was better than HCQS.

[7] = system: arachidonic acid (AA) induced platelet activation in human whole blood; settings: read-out: anti-platelet activity IC(50); cited from earlier work
[8] = time point 3, controls set at 100%
[9] = time point 4, controls set at 100%

Q: Which “micronucleus induction / mutagenic effect” value (mouse bone marrow) does the source give for `O=P1(N(CCCl)CCCl)NCCCO1` (stereo not drawn) [cyclophosphamide] here?
A: significant increase in percent micronuclei: PCE ratio

Q: With `Cc1ccc(-c2cc(C(F)(F)F)nn2-c2ccc(S(N)(=O)=O)cc2)cc1` [Celecoxib] as the molecule, how does the “dose with significant peripheral analgesic activity” value [1] read?
A: 400 mg/kg

Q: What about the “minimum dose with significant anti-inflammatory activity” value [2] of the same molecule?
A: 200 mg/kg

Q: What about the “Percent control GAG release” value ([3]; time point 1, 100 microg/mL) of the same molecule?
A: 90.24 ± 25.71%

Q: And the “Percent control GAG release” value ([3]; time point 2, 100 microg/mL)?
A: 84.87 ± 28.54%

Q: And the “Percent control GAG release” value ([3]; time point 3, 100 microg/mL)?
A: 87.83 ± 28.99%

Q: What about the “decrease in GAG release compared to controls” value ([3]; time point 4) of the same molecule?
A: 25%

Q: And the “Percent control GAG release” value ([3]; time point 4, 100 microg/mL)?
A: 74.81 ± 31.83%

Q: And the “Percent control GAG release” value ([3]; time point 5, 100 microg/mL)?
A: 89.42 ± 31.98%

Q: What about the “PainVAS, mean change between baseline and completion (Mean ± SD)” value (symptomatic OA knees) of the same molecule?
A: −1.82 ± 1.95

Q: And the “W_DIFF, mean change between baseline and completion (Mean ± SD)” value (symptomatic OA knees)?
A: −6.93 ± 9.88

Q: What about the “W_PAIN, mean change between baseline and completion (Mean ± SD)” value (symptomatic OA knees) of the same molecule?
A: −1.89 ± 3.01

Q: What about the “W_STIFF, mean change between baseline and completion (Mean ± SD)” value (symptomatic OA knees) of the same molecule?
A: −0.34 ± 1.91

Q: What about the “W_TOTAL, mean change between baseline and completion (Mean ± SD)” value (symptomatic OA knees) of the same molecule?
A: −9.17 ± 13.05

Q: For `N[C@H]1C(O)O[C@H](CO)[C@@H](O)[C@@H]1O` (stereo partly drawn) [Glucosamine], which “dose with significant peripheral analgesic activity” value [1] is on record?
A: 400 mg/kg

Q: What about the “minimum dose with significant anti-inflammatory activity” value [2] of the same molecule?
A: devoid of any anti-inflammatory activity

Q: And the “Glycosaminoglyan (GAG) release, decrease” value ([3]; long term = at least 3 of 4 time points, short term = 1 or 2)?
A: Short term

Q: What about the “Percent control GAG release” value ([3]; time point 1, 100 microg/mL) of the same molecule?
A: 118.96 ± 34.74%

Q: What about the “Percent control GAG release” value ([3]; time point 2, 100 microg/mL) of the same molecule?
A: 91.70 ± 16.55%

Q: What about the “mean decrease of GAGs release relative to control explants” value ([3]; time point 3) of the same molecule?
A: 26%

Q: What about the “Percent control GAG release” value ([3]; time point 3, 100 microg/mL) of the same molecule?
A: 86.52 ± 19.36%

Q: What about the “mean decrease in levels of GAG and aggrecan release relative to controls” value ([3]; time point 3, both markers) of the same molecule?
A: 25-35%

Q: And the “levels of GAG released compared to controls (FIG. 1)” value [3, 8]?
A: 73.72±9.69%

Q: What about the “decrease in GAG release compared to controls” value ([3]; time point 4) of the same molecule?
A: 25%

Q: What about the “mean decrease of GAGs release relative to control explants” value ([3]; time point 4) of the same molecule?
A: 20%

Q: What about the “Percent control GAG release” value ([3]; time point 4, 100 microg/mL) of the same molecule?
A: 76.01 ± 19.96%

Q: And the “levels of GAG released compared to controls (FIG. 2)” value [3, 9]?
A: 81.38±14.35%

Q: What about the “Percent control GAG release” value ([3]; time point 5, 100 microg/mL) of the same molecule?
A: 87.15 ± 20.83%

Q: What about the “Aggrecan (AGG) release, decrease” value [4] of the same molecule?
A: Significant

Q: What about the “mean decrease of Aggrecan release relative to control explants” value ([4]; time point 3) of the same molecule?
A: 34%

Q: And the “levels of aggrecan released compared to controls (FIG. 1)” value [4, 8]?
A: 66.13±21.81%

Q: What about the “Aggrecan release by cartilage explants” value ([4]; time point 4, 5 patients) of the same molecule?
A: not significantly decreased

Q: What about the “levels of aggrecan released compared to controls (FIG. 2)” value [4, 9] of the same molecule?
A: 86.07±21.71%

Q: And the “Nitric oxide (NO) release, decrease” value (OA cartilage explants)?
A: No significant

Q: What about the “Nitric oxide (NO) release, decrease” value (OA cartilage explants; listed as gulosamine) of the same molecule?
A: did not significantly decrease

Q: And the “Daily consumption Paracetamol, Mean, AVR_TOTAL” value ([5]; all visits)?
A: 1.7950

Q: And the “PATG (1-5 grades), baseline mean” value ([5]; baseline)?
A: 3.52 grades

Q: What about the “PainVAS (0-100 mm), baseline mean” value ([5]; baseline) of the same molecule?
A: 64.8 mm

Q: What about the “WOMAC Pain (0-20 score), baseline mean” value ([5]; baseline) of the same molecule?
A: 8.0 score

Q: What about the “PATG, mean of percent change from baseline” value ([5]; over 16 weeks) of the same molecule?
A: 15.4%

Q: What about the “PainVAS, mean of percent change from baseline” value ([5]; over 16 weeks) of the same molecule?
A: 21%

Q: What about the “WOMAC Pain, mean of percent change from baseline” value ([5]; over 16 weeks) of the same molecule?
A: 14.2%

Q: What about the “Daily consumption Paracetamol, Mean, AVR_PAR3” value ([5]; visit 3) of the same molecule?
A: 2.0110

Q: What about the “Daily consumption Paracetamol, Mean, AVR_PAR4” value ([5]; visit 4) of the same molecule?
A: 1.9038

Q: And the “Daily consumption Paracetamol, Mean, AVR_PAR5” value ([5]; visit 5)?
A: 1.9863

Q: And the “Daily consumption Paracetamol, Mean, AVR_PAR6” value ([5]; visit 6)?
A: 1.8846

Q: And the “Daily consumption Paracetamol, Mean, AVR_PAR7” value ([5]; visit 7)?
A: 1.3516

Q: What about the “PainVAS, mean change between baseline and completion (Mean ± SD)” value (symptomatic OA knees) of the same molecule?
A: −2.45 ± 2.23

Q: What about the “W_DIFF, mean change between baseline and completion (Mean ± SD)” value (symptomatic OA knees) of the same molecule?
A: −8.12 ± 10.89

Q: And the “W_PAIN, mean change between baseline and completion (Mean ± SD)” value (symptomatic OA knees)?
A: −2.72 ± 3.26

Q: What about the “W_STIFF, mean change between baseline and completion (Mean ± SD)” value (symptomatic OA knees) of the same molecule?
A: −0.49 ± 1.61

Q: And the “W_TOTAL, mean change between baseline and completion (Mean ± SD)” value (symptomatic OA knees)?
A: −11.33 ± 13.75

Q: For `CCN(CCO)CCCC(C)Nc1ccnc2cc(Cl)ccc12` (stereo not drawn) [HCQS, Hydroxychloroquine], which “efficacy in RA, individual group analysis” value [6] is on record?
A: several significant improvements

Q: Which IC50 [7] does the source give for `CC(=O)Oc1ccccc1C(=O)O` [aspirin] here?
A: 20 µM
